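Step 1: Grow cells in 96-well plates. Step 2: Expose to compound for 48 hours at 5 concentrations. Step 3: Interpolate endpoints linearly; if unreached, use highest concentration. GI50 is the concentration that inhibits growth by half.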 Active and inactive are the calls of the source. Rule as the data show it: active = GI50 up to about 1.1 µM and inactive = higher.
Assays:
Assay in all cases: inhibition of tumour cell growth, NCI panel, 48 h
MOLT-4 = system: MOLT-4
SK-MEL-28 = system: SK-MEL-28
EKVX = system: EKVX
U-251 = system: U-251
SW-620 = system: SW-620
SN12C = system: SN12C
SF-295 = system: SF-295
NCI-H23 = system: NCI-H23
KM12 = system: KM12
UO-31 = system: UO-31
A498 = system: A498
SNB-19 = system: SNB-19
RXF 393 = system: RXF 393
SF-539 = system: SF-539
CCRF-CEM = system: CCRF-CEM
M19-MEL = system: M19-MEL

Measured: GI50

Cc1nc(N)c(-c2ccccc2)s1
inactive: MOLT-4 > 76.7 µM | SK-MEL-28 > 100 µM | EKVX > 94.6 µM | U-251 > 48.5 µM | SW-620 18.3 µM | SN12C 81.3 µM | SF-295 32.7 µM | NCI-H23 > 100 µM | KM12 > 74.6 µM | UO-31 > 100 µM | A498 > 32.4 µM | SNB-19 80.7 µM | RXF 393 > 48.2 µM | SF-539 70.8 µM | CCRF-CEM 36.5 µM | M19-MEL > 100 µM

COc1ccc(S(=O)(=O)N[C@H](C(=O)O)c2ccccc2)cc1
inactive: MOLT-4 > 100 µM | SK-MEL-28 > 100 µM | EKVX > 100 µM | U-251 > 100 µM | SW-620 > 100 µM | SN12C > 100 µM | SF-295 > 100 µM | NCI-H23 > 100 µM | KM12 > 100 µM | UO-31 > 100 µM | SNB-19 > 100 µM | RXF 393 > 100 µM | SF-539 > 100 µM | CCRF-CEM > 100 µM | M19-MEL > 100 µM

CCCN(CCC)C(=O)C(=O)c1c(N)[nH]n(-c2ccccc2)c1=O
inactive: MOLT-4 > 100 µM | EKVX > 100 µM | U-251 > 100 µM | SW-620 > 100 µM | SN12C > 100 µM | SF-295 > 100 µM | NCI-H23 > 100 µM | KM12 96.4 µM | UO-31 > 100 µM | A498 > 100 µM | SNB-19 > 100 µM | SF-539 > 100 µM | CCRF-CEM 93.3 µM | M19-MEL > 100 µM

Cc1cc(C)nc(NS(=O)(=O)c2ccc(Nc3c4ccccc4nc4c(C(=O)N5CCN(CCO)CC5)ccc(Cl)c34)cc2)n1
inactive: MOLT-4 25.9 µM | SK-MEL-28 > 100 µM | U-251 97.3 µM | SN12C 94.2 µM | SF-295 > 100 µM | NCI-H23 > 100 µM | KM12 > 100 µM | UO-31 > 100 µM | A498 > 100 µM | SNB-19 > 100 µM | RXF 393 > 100 µM | SF-539 > 100 µM | CCRF-CEM 25.9 µM | M19-MEL 76 µM

CC(C)c1cc2c(O)c(c1)Cc1cc(C(C)C)cc(c1O)Cc1cc(C(C)C)cc(c1O)Cc1cc(C(C)C)cc(c1O)Cc1cc(C(C)C)cc(c1O)Cc1cc(C(C)C)cc(c1O)C2
inactive: MOLT-4 > 100 µM | SK-MEL-28 > 100 µM | EKVX > 100 µM | U-251 > 100 µM | SW-620 > 100 µM | SN12C > 100 µM | SF-295 > 100 µM | NCI-H23 > 100 µM | KM12 > 100 µM | UO-31 > 100 µM | SNB-19 > 100 µM | RXF 393 > 100 µM | SF-539 > 100 µM | CCRF-CEM > 100 µM | M19-MEL > 100 µM

Source: ChEMBL document CHEMBL1201862, “PubChem BioAssay data set” (2004)
